Reference: patent US4772459A, “Method for controlling emesis caused by chemotherapeutic agents and antiemetic agents useful therein” (priority 1986, dated 1988)
Where a name gives a salt, the structure may show the parent alone.

Columns and labels:
[1] = test system: striatal DOPAC; test: Dopamine Turnover: striatal DOPAC response; assay type: in vivo, Sprague Dawley rats (male); conditions: rat; for Response of striatal DOPAC, percent change from control: intravenous
Procedure: Male Sprague Dawley rats were injected intravenously with various doses of test compound and whole brain was removed at a predetermined time after dosing. The striatum was dissected from the brain, homogenized in a buffer/organic solvent mixture, clarified with a centrifuge, and an aliquot of the supernatant analyzed for 3,4-dihydroxyphenylacetic acid (DOPAC) by high performance liquid chromatography coupled with an electrochemical detector. The results are expressed as the percent change from control. The standard deviation of the data generally required a difference of 18% from control to be statistically significant at the 0.05 level as determined by the Student's "t" test. DOPAC is a metabolite of dopamine.

[2] = Dacarbazine Emesis; assay type: in vivo, beagle dogs; conditions: 1.0 mg/kg IV × 2, dog; dacarbazine 10 mg/kg i.v.; protected if 2 or less emetic events in 5 h
Procedure: Mature beagle dogs (7-16 kg) were used in these experiments. The animals were individually caged with water available ad libitum. Each dog was offered 300 g of Purina Dog Chow the day of an experiment. Drug (mg base/kg) or carrier (0.9% saline; 0.2 ml/kg) was administered intravenously 30 minutes before and 120 minutes after intravenous bolus administration of 10 mg/kg dacarbazine (10 mg DTIC/ml saline; Miles Pharmaceuticals). […] If the animal suffered 2 or less emetic events, the animal was considered protected.

[3] = Cisplatin Emesis; assay type: in vivo, Beagle dogs; conditions: for ED50: Canis lupus familiaris, iv, dog, drug i.v. 30 min before and 120 min after 3 mg/kg cisplatin i.v., blocked if 2 or less emetic events in 5 h
Procedure: Mature Beagle dogs of either sex, weighing 7-16 kg, were individually caged with water available ad libitum. Each animal was offered 300 g of Purina Dog Chow the day of an experiment. Drug in varying doses or carrier was administered intravenously 30 minutes before and 120 minutes after intravenous bolus administration of 3 mg/kg cisplatin (Ben Venue Laboratories, Inc., Bedford, Ohio). […] Emesis was considered blocked if the animal suffered 2 or less emetic events. Based upon these observations, ED50 values were determined for each of the compounds tested.

[4] = Apomorphine Emesis; assay type: in vivo, beagle dogs; conditions: dog, apomorphine HCl 0.1 mg/kg s.c., protected if no emetic events in 1 h
Procedure: Mature beagle dogs, individually caged and weighing 10.6-14.5 kg, were used in these experiments. The animals were fed just before being dosed intravenously with drug (mg base/kg) or carrier (0.9% saline; 0.2 ml/kg). Each animal received 0.1 mg/kg apomorphine hydrochloride (1 mg/ml saline; Lilly) subcutaneously thirty minutes after administration of the test compound. […] If the animal had no emetic events, the animal was considered protected.

[5] = Catalepsy; assay type: in vivo, Sprague Dawley rats (female); conditions: 20 mg/kg i.v., rat, tested one and two hours later
Procedure: Female Sprague Dawley rats (Harlen Industries, Indianapolis, Ind.), weighing 160-225 g, were used. The animals (n=6) were injected intravenously with drug (20 mg/kg) or carrier (saline; 2 ml/kg) and were tested one and two hours later. This involved placing the front paws of the rat on a horizontal metal bar suspended 10 cm above the table top and recording the number of seconds, to a maximum of 60, that the animal remains in this position. Each animal was tested three times in succession and the average time the animal remained on the bar was calculated. Student's non-paired "t" test was employed to determine the significance of differences between the control and treated groups.

[6] = Apomorphine Climbing; assay type: in vivo, ICR-Swiss mice (male); conditions: for ED50: ip, 0.5 h, mouse, dose yielding climbing index of 100, apomorphine HCl 1 mg/kg s.c. 30 min after drug, read-out: Apomorphine Climbing 50% ED
Procedure: Male ICR-Swiss mice (Harlan Industries, Indianapolis, Ind.), weighing 25-29 g, were placed in 8×10×16 cm wire cages. After a 1 to 1.5 hour acclimatization period, drug or carrier was administered intraperitoneally. Apomorphine hydrochloride (Lilly; 1 mg/kg) or carrier (saline, 10.0 ml/kg) was administered subcutaneously 30 minutes after test compound administration. Climbing behavior was assessed 20 minutes after apomorphine injection using the following scoring system:
(0) 4 paws on the floor of the cage
(1) 1, 2, or 3 paws grasping a side of the cage
(2) 4 paws grasping a side of the cage.
Climbing indexes were calculated using the formula: [formula] 50% ED values (i.e., the dose of drug which yields a climbing index of 100) were calculated using regression equations.

[7] = very high dosages, beginning prior to cisplatin and continuing through post administration; cited from earlier work

SMILES | Response of striatal DOPAC, percent change from control ([1]; 0.3 mg/kg) [%] | Response of striatal DOPAC, percent change from control ([1]; 1.0 mg/kg) [%] | Response of striatal DOPAC, percent change from control ([1]; 3.3 mg/kg) [%] | Response of striatal DOPAC, percent change from control ([1]; 10 mg/kg) [%] | Response of striatal DOPAC, percent change from control ([1]; 33 mg/kg) [%] | Dacarbazine-induced emesis: Number Protected/Number Dosed [2] | ED50 [3] [mg/kg] | Apomorphine-induced emesis: Number Protected/Number Dosed ([4]; 1.0 mg/kg IV) | Apomorphine-induced emesis: Number Protected/Number Dosed ([4]; 2.0 mg/kg IV) | Catalepsy ([5]; hydrochloride) | ED50 [6] [mg/kg] | Apomorphine-induced emesis: Number Protected/Number Dosed ([4]; 4.0 mg/kg IV) | Catalepsy [5] | effect on emesis caused by cisplatin (in words) [7] | Response of striatal DOPAC, percent change from control ([1]; 0.1 mg/kg) [%] | dopamine antagonism suggested by Table 1 (in words) ([1]; striatal DOPAC, i.v.) | cisplatin antiemetic activity (in words) ([3]; data in Table 2) | Apomorphine-induced emesis: Number Protected/Number Dosed ([4]; 0.125 mg/kg IV) | dopamine antagonist activity from Table 2 (in words) ([6]; apomorphine climbing and catalepsy data)
O=C(NC[C@@H]1CCCN1)c1cc(Cl)cc2c1OCC2 [Compound 1, (L)-5-chloro-N--(2-pyrrolidinylmethyl)-2,3-dihydrobenzo[b]furan-7-carboxamide hydrochloride] | -11.6 | -0.6 | -2.5 | 91.8 | 255.4 | 4/4 | 0.6 | 0/2 | 2/2 | No | 36.2 | – | – | – | – | – | – | – | –
Nc1cc2c(c(C(=O)NC[C@@H]3CCCN3)c1)OCC2 [Compound 2, (L)-5-amino-N--(2-pyrrolidinylmethyl)-2,3-dihydrobenzo[b]furan-7-carboxamide hydrochloride] | 0.0 | -6.5 | -17.3 | 0.0 | -10.7 | 4/4 | ~1.75 | – | – | No | 100 | 0/4 | – | – | – | – | – | – | –
Nc1c(Cl)cc(C(=O)NC[C@@H]2CCCN2)c2c1CCO2 [Compound 3, (L)-4-amino-5-chloro-N--(2-pyrrolidinylmethyl)-2,3-dihydrobenzo[b]furan-7-carboxamide hydrochloride] | -14.4 | -10.0 | -6.2 | -2.7 | 6.4 | 4/4 | ~0.42 | 0/4 | 0/4 | No | 75 | 0/4 | – | – | – | – | – | – | –
COc1cc(N)c(Cl)cc1C(=O)NC[C@@H]1CCCN1 [Compound 4, (L)-4-amino-5-chloro-2-methoxy-N--(2-pyrrolidinylmethyl)benzamide hydrochloride] | -1.9 | -3.3 | -3.7 | 13.7 | 41.6 | – | 1 | 0/4 | – | No | 44.5 | – | – | – | – | – | – | – | –
CCN1CCCC1CNC(=O)c1cc(Cl)cc2c1OCC2 (centres unmarked) [Compound C-1, 5-chloro-N--(1-ethyl-2-pyrrolidinylmethyl)-2,3-dihydrobenzo[b]furan-7-carboxamide hydrochloride] | – | – | – | – | – | – | 1 | – | – | – | 0.91 | – | Yes | – | – | – | – | – | –
CCN1CCCC1CNC(=O)c1cc(N)cc2c1OCC2 (centres unmarked) [Compound C-2, 5-amino-N--(1-ethyl-2-pyrrolidinylmethyl)-2,3-dihydrobenzo[b]furan-7-carboxamide hydrochloride] | – | – | – | – | – | – | 2.5 | – | – | – | 10.4 | – | No | – | – | – | – | – | –
CCN1CCCC1CNC(=O)c1cc(Cl)c(N)c2c1OCC2 (centres unmarked) [Compound C-3, 4-amino-5-chloro-N--(1-ethyl-2-pyrrolidinylmethyl)-2,3-dihydrobenzo[b]furan-7-carboxamide fumarate] | – | – | – | – | – | – | 0.7 | – | – | – | 1.5 | – | Yes | – | – | – | – | – | –
CCN1CCCC1CNC(=O)c1cc(Cl)c(N)cc1OC (centres unmarked) [Compound C-4, 4-amino-5-chloro-2-methoxy-N--(1-ethyl-2-pyrrolidinylmethyl)benzamide] | – | – | – | – | – | – | 1 | – | – | – | 0.44 | – | Yes | – | – | – | – | – | –
CCN(CC)CCNC(=O)c1cc(Cl)c(N)cc1OC [Metoclopramide, metoclopramide, reference compound] | 12.4 | 81.2 | 192.0 | 384.6 | – | 3/4 | 1.1 | 4/4 | – | – | 1.7 | – | – | effective in alleviating emesis caused by cisplatin | 1.2 | exhibits strong dopamine antagonism at doses of 1.0 mg/kg and greater | effective antiemetics | 2/4 | strong dopamine antagonists
